The record followed here is patent publication US20100190710A1, “IL-23 RECEPTOR ANTAGONISTS AND USES THEREOF” (Valorisation HSJ, Societe en Commandite, priority 2007, published 2010).

Molecules are shown by their SMILES. “Also recorded” adds a separate entry of the source. Peptide text beside a SMILES is read from it.

Holding throughout (assay type): cell-based
The target in one experiment is T1, IL-23R (Mus musculus, UniProt Q8K4B4).
T1 construct: Spleens were sterilely removed from mice, sliced, and mashed in the presence of PBS buffer; from tissue; host or cells: mouse spleen: freshly isolated splenocytes, and CD4+ cells differentiated into TH17 cells
T1 sequence (Q8K4B4 24-644): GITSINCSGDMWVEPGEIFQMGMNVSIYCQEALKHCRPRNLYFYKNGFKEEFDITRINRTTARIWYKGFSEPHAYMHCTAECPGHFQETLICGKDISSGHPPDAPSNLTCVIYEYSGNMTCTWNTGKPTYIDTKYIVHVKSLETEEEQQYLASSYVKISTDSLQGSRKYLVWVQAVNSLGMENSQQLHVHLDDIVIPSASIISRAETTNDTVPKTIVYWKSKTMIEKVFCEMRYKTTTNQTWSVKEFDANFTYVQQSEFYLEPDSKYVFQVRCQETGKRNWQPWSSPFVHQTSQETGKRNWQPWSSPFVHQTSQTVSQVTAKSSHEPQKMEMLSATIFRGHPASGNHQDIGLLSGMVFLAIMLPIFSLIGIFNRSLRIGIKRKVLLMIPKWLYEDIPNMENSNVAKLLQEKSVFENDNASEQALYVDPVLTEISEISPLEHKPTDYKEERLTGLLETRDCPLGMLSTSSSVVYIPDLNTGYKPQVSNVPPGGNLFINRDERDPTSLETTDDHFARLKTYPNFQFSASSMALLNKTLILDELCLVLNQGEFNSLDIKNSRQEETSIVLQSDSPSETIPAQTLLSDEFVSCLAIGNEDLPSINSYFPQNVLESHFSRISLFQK
Briefly: IL-23-induced STAT3 phosphorylation in freshly isolated splenocytes (Alpha Screen SureFire p-STAT-3). Conditions: freshly isolated splenocytes; listed as APG-2309. On the procedure: Spleens were sterilely removed from mice, sliced, and mashed in the presence of PBS buffer, 2% fetal bovine serum, and 1 mM EDTA. Tissue was allowed to pass through a number 26 syringe and was filtered through a 70 μm mesh nylon strainer. Cells were cultured with non-essential amino acids, 2 μg/ml of anti-CD3, and 20 μg/ml of anti-CD-28 as survival and differentiation factors.
Splenocytes or TH17 cells were distributed in 384-well plates (Optiplate; Perkin Elmer) (100,000 cells/well). Cells were pre-incubated for 30 minutes with different concentrations of peptide APG-2305 or APG-2309 and incubated with 25 ng/ml of IL-23 (R&D systems) for 10 minutes. STAT3 phosphorylation was determined with the kit Alpha Screen SureFire p-STAT-3 assay from Perkin Elmer according to manufacturer's instructions. Briefly, after incubation with IL-23, cells were lysed and contacted with (1) protein A acceptor conjugated beads coated with anti-p-STAT-3 (Tyr705) and (2) streptavidin-coated donor beads. The resulting signal was measured with a Perkin Elmer Wallac En vision 2104 Multilabel reader. Graphs were generated using GraphPrism 4 software.
The effect of peptide APG-2305 and APG-2309 derivatives on IL-23-induced STAT3 phosphorylation was determined using CD-1 mice freshly isolated splenocytes and the Alpha Screen p-STAT3 assay (see above materials and methods) (FIGS. 6 and 7). […] As described herein, based on the efficacy of derivatives, we have identified regions in APG-2305 and APG-2309 peptides that are important for their ability to affect IL-23R activity.

Experiment [1] has as its target T2, IL-23 receptor (Homo sapiens, UniProt Q5VWK5).
T2 sequence (Q5VWK5 24-629): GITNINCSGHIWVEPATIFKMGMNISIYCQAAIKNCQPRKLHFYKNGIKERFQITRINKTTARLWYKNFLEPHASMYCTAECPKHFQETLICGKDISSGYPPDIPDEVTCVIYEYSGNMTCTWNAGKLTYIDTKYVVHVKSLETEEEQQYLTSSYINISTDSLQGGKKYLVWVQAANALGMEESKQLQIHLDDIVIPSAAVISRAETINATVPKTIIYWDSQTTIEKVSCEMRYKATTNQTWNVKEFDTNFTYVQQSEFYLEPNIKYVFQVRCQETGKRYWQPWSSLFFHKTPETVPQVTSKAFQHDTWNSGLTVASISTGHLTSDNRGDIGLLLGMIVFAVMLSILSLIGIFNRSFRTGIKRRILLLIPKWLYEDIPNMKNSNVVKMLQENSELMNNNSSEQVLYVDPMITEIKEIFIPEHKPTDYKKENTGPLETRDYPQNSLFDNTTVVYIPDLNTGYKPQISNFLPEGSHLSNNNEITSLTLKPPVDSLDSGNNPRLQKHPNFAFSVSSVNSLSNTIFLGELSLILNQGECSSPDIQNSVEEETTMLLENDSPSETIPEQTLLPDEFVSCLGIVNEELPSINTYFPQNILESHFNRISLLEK
Briefly: IL-23-induced STAT3 phosphorylation in PMA-activated HL-60 monocytes (Western blot). Also noted: endogenous in cells. The conditions noted are these: PMA-activated HL-60 human monocytes; peptide 1 μM, 30 min pre-incubation; IL-23 10 ng/ml, 15 min. The procedure: FIG. 2 is a graph showing the results of efficacy screening of peptides designed from the IL-23 receptor. HL-60 human monocytes were pre-incubated for 30 minutes with the particular peptides (1 μM) and stimulated for 15 minutes with IL-23 (10 ng/ml). Western Blot analysis of phosphorylated-STAT3 and total STAT3 was performed on cell lysates. Immunoblot densitometry was measured using ImagePro4+ software. […] FIGS. 3A and 3B are graphs showing inhibition of IL-23-induced STAT3 phosphorylation and TNFα generation. […] Western Blot analysis was performed on cell lysates, and immunoblot densitometry was measured using ImagePro4+ software. […] TNFα production was quantified by ELISA 24 hours after stimulation with IL-23 using the Quantikine ELISA Kit (R&D systems). […] D-peptides 2303, 2305, 2307 and 2309 (1 μM) inhibit IL-23-induced STAT3 phosphorylation in phorbol 12-myristate 13-acetate (PMA)-activated human monocytes (HL-60) (FIG. 2).
(In general: A western blot detects proteins with antibodies after separation by electrophoresis.)

For experiment [2], the target named is T2, IL-23 receptor. Briefly: IL-23-induced TNFα production in PMA-activated HL-60 monocytes (ELISA). Also noted: endogenous in cells. The conditions noted are these: IL-23 10 ng/ml, ELISA 24 hours after stimulation, read-out: Emax, inhibition of IL-23-induced TNF formation. On the procedure:
FIGS. 3A and 3B are graphs showing inhibition of IL-23-induced STAT3 phosphorylation and TNFα generation. […] Western Blot analysis was performed on cell lysates, and immunoblot densitometry was measured using ImagePro4+ software. […] TNFα production was quantified by ELISA 24 hours after stimulation with IL-23 using the Quantikine ELISA Kit (R&D systems).
D-peptides 2303, 2305, 2307 and 2309 (1 μM) inhibit IL-23-induced STAT3 phosphorylation in phorbol 12-myristate 13-acetate (PMA)-activated human monocytes (HL-60) (FIG. 2).

What is called Emax is the greatest response seen or fitted, relative to the assay's reference. Regarding `CSCC[C@@H](N)C(=O)N[C@H](CCC(=O)O)C(=O)N[C@H](CCC(=O)O)C(=O)N[C@H](CO)C(=O)N[C@H](CCCCN)C(=O)N[C@H](CCC(N)=O)C(=O)N[C@H](CC(C)C)C(=O)N[C@H](CCC(N)=O)C(=O)N[C@H](CC(C)C)C(=O)O` [Peptide 2309, MEESKQLQL] (HELM PEPTIDE1{[dM].[dE].[dE].[dS].[dK].[dQ].[dL].[dQ].[dL]}$$$$V2.0; N-terminus and C-terminus assumed), the “effect on IL-23-induced STAT3 phosphorylation” value at IL-23R was “inhibit; also recorded: showed efficacy”; at IL-23 receptor [1] it was “demonstrable efficacy; also recorded: inhibit; also recorded: remained capable of inhibiting”. For the same molecule, at IL-23 receptor [2], the Emax is about 80%.
